Data on 2 compounds can be found in patent US7514106B2, “Compositions and methods for uterine relaxing” (Yangsen Biotechnology Co., Ltd., priority 2006, dated 2009).

Assay [1] has as its system PGF2a-stimulated rat uterine muscle contraction. The assay can be described thus: Inhibition of PGF2a-stimulated rat uterine muscle strip contraction (organ bath). It counts as cell-based. Conditions: 20 μg/ml compound pretreatment for 10 min before PGF2a (1 μM). On the procedure: (§1) Uterine relaxing activities on OTC- and KCl-stimulated rat uterine muscle contraction were carried out according to the method described by Ostad S N, Soodi M, Shariffzadeh M, Khorshidi N, and Marzban H. (The effect of fennel essential oil on uterine contraction as a model for dysmenorrhea, pharmacology and toxicology study. Journal of Ethnopharmacology 2001; 76: 299-304.). Female virgin Sprague-Dawley rats (200 g to 300 g) were obtained from the Laboratory Animal Center at Yang-Ming University. They were primed with 5 mg/kg of estradiol (Sigma-Aldrich) 24 hours before the experiments, and then sacrificed by CO2 asphyxiation. Uterine strips free from adhering tissues were mounted under a resting tension of 1 g in a 10 ml organ bath containing dejalon solution gassed with carbogen (95% O2 and 5% CO2) at 31° C., which were then allowed to equilibrate for at least 1 hour. To evaluate the effect on the contractile response induced by PGF2a, a modified Locke-Ringer solution and a maintained temperature of 28° C. were used according to the method described by Murata. P, Hayakawa T, Satoh K, Kase Y, Ishige A, and Sasaki H. (Effects of Dai-kenchu-to, a herbal medicine, on uterine and intestinal motility. Phytotherapy Research 2001; 15: 302-6). Contractions were recorded by force displacements transducers (Grass Instruments USA) using MP100 workstation software (Biopac Systems USA) on a PC. […]

Assay [2] concerns KCl-stimulated rat uterine muscle contraction. The assay can be described thus: Inhibition of KCl-stimulated rat uterine muscle strip contraction (organ bath). It counts as cell-based. Conditions: 20 μg/ml compound pretreatment for 10 min before KCl (60 mM). Here is the method:
as §1

Consider `Cc1ccc(C(C)C)c(O)c1` [thymol], for which the “inhibition of muscle contraction” value in assay [1] is recorded as “didn't show obvious inhibition”. Moreover, the inhibition at 20 µg/mL in assay [2] fell in the range of 27 to 46%.
For `C=CC(C)(O)CCC=C(C)C` (stereo not shown) [linalool], in that order: “didn't show obvious inhibition” and 27 to 46%.
